Data published in ChEMBL document CHEMBL5154675, “Design, Synthesis, and Biological Evaluation of 1-(Indolizin-3-yl)ethan-1-ones as CBP Bromodomain Inhibitors for the Treatment of Prostate Cancer” (J Med Chem, 2022).
Calls of active or inactive are those of the source. The rule behind the calls is not given here.

Experiments:
LNCaP [1] = assay: Suppression of Androgen receptor target-gene expression in human LNCaP cells at 5 uM incubated for 48 hrs by SYBR green dye-based qRT-PCR analysis; format: functional, cell-based
[2] = Hepatic clearance in human liver microsomes at 1 uM incubated for 45 mins in presence of NADPH by LC-MS/MS analysis; format: ADME, Microsome; conditions: read-out: CLH
LNCaP C4-2B [3] = assay: Suppression of c-Myc protein expression in human LNCaP C4-2B cells at 5 uM incubated for 48 hrs by Western blot analysis; format: functional, cell-based
[4] = Apparent permeability across apical to basolateral side in human Caco-2 cells assessed as drug recovery at 10 uM measured after 2 hrs by LC-MS/MS analysis; format: ADME, cell-based; conditions: read-out: Drug recovery
CWR22R [5] = assay: Antiproliferative activity against human 22Rv1 cells assessed as cell growth inhibition by Celltiter-Glo assay; format: functional, cell-based
[6] = molecular target: PH-interacting protein (Homo sapiens) (UniProt Q8WWQ0); conditions: dose 200.0 µM, time 30.0 min
[7] = molecular target: T1, Bromodomain testis-specific protein (Homo sapiens, UniProt Q58F21); conditions: dose 200.0 µM, time 30.0 min
LNCaP C4-2B [8] = assay: Antiproliferative activity against human LNCaP C4-2B cells assessed as inhibition of cell growth by Celltiter-Glo assay; format: functional, cell-based
[9] = Toxicity in NOD SCID mouse xenografted with human 22Rv1 cells assessed as body weight loss at 40 mg/kg, ip administered once daily for 21 days and measured every other day; format: organism-based, CWR22R; conditions: in vivo, 504 h, time 21 day
[10] = molecular target: Bromodomain-containing protein 2 (Homo sapiens, UniProt P25440); conditions: dose 200.0 µM, time 30.0 min
Chain of Bromodomain-containing protein 2 (P25440 whole entry, looked up): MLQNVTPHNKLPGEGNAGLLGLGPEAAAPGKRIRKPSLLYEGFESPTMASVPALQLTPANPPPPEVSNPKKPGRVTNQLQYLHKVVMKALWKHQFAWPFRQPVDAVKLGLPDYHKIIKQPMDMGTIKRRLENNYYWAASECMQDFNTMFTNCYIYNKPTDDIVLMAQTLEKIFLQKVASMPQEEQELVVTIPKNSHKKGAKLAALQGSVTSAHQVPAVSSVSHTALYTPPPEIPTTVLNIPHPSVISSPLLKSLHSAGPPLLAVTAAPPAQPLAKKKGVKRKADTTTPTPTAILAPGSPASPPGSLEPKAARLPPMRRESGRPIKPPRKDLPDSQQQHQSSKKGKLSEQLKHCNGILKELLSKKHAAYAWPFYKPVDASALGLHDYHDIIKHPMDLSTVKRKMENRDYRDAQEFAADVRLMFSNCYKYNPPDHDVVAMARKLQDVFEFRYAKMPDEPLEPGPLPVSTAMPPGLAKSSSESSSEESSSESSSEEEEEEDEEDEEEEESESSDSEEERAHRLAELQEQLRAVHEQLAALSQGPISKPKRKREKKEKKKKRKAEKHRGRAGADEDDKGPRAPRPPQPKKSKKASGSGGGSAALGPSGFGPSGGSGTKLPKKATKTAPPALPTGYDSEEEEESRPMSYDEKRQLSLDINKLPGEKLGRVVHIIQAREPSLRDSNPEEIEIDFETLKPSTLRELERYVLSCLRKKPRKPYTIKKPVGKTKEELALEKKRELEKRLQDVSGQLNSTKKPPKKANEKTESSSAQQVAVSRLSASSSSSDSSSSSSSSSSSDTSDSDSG

CWR22R [11] = assay: Antitumor activity against human 22Rv1 cells xenografted in NOD SCID mouse assessed as tumor growth inhibition at 40 mg/kg, ip administered once daily for 21 days and measured every other day relative to control; format: functional; conditions: 22Rv1, 504 h, time 21 day, read-out: TGI
[12] = Half life in Sprague-Dawley rat at 5 mg/kg, iv administered as single dose measured up to 24 hrs; format: ADME, organism-based; conditions: Sprague-Dawley, in vivo
[13] = Oral bioavailability in Sprague-Dawley rat at 25 mg/kg measured up to 24 hrs; format: ADME, organism-based; conditions: in vivo
[14] = molecular target: T2, Bromodomain-containing protein 3 (Homo sapiens, UniProt Q15059); conditions: dose 200.0 µM, time 30.0 min
T2 sequence (Q15059 2-726 limits assumed): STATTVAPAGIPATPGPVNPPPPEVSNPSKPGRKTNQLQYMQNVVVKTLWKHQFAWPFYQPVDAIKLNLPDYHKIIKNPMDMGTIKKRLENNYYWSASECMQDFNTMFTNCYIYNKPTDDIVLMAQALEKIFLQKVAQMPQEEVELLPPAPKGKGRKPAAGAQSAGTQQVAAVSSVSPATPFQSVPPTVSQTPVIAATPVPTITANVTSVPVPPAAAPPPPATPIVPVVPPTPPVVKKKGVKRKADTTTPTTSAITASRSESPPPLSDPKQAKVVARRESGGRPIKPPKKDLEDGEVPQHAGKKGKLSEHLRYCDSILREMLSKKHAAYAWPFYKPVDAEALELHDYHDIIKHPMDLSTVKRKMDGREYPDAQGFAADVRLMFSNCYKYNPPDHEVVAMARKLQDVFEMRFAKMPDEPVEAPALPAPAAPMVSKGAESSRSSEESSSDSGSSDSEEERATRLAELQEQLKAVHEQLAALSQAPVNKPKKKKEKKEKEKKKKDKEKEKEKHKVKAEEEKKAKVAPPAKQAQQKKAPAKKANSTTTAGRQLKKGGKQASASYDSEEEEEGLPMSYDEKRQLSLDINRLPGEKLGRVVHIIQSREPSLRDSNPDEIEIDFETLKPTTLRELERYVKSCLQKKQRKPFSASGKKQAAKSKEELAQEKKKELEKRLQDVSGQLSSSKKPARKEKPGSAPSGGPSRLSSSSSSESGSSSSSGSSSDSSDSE

[15] = Metabolic stability in human liver microsomes assessed as parent compound remaining at 1 uM incubated for 45 mins in presence of NADPH by LC-MS/MS analysis; format: ADME, Microsome; conditions: read-out: Stability
[16] = Half life in rat liver microsomes at 1 uM incubated for 45 mins in presence of NADPH by LC-MS/MS analysis; format: ADME, Microsome
[17] = molecular target: Chromatin remodeling regulator CECR2 (Homo sapiens) (UniProt Q9BXF3); conditions: dose 200.0 µM, time 30.0 min
Chain of Chromatin remodeling regulator CECR2 (Homo sapiens) (Q9BXF3 whole entry, looked up): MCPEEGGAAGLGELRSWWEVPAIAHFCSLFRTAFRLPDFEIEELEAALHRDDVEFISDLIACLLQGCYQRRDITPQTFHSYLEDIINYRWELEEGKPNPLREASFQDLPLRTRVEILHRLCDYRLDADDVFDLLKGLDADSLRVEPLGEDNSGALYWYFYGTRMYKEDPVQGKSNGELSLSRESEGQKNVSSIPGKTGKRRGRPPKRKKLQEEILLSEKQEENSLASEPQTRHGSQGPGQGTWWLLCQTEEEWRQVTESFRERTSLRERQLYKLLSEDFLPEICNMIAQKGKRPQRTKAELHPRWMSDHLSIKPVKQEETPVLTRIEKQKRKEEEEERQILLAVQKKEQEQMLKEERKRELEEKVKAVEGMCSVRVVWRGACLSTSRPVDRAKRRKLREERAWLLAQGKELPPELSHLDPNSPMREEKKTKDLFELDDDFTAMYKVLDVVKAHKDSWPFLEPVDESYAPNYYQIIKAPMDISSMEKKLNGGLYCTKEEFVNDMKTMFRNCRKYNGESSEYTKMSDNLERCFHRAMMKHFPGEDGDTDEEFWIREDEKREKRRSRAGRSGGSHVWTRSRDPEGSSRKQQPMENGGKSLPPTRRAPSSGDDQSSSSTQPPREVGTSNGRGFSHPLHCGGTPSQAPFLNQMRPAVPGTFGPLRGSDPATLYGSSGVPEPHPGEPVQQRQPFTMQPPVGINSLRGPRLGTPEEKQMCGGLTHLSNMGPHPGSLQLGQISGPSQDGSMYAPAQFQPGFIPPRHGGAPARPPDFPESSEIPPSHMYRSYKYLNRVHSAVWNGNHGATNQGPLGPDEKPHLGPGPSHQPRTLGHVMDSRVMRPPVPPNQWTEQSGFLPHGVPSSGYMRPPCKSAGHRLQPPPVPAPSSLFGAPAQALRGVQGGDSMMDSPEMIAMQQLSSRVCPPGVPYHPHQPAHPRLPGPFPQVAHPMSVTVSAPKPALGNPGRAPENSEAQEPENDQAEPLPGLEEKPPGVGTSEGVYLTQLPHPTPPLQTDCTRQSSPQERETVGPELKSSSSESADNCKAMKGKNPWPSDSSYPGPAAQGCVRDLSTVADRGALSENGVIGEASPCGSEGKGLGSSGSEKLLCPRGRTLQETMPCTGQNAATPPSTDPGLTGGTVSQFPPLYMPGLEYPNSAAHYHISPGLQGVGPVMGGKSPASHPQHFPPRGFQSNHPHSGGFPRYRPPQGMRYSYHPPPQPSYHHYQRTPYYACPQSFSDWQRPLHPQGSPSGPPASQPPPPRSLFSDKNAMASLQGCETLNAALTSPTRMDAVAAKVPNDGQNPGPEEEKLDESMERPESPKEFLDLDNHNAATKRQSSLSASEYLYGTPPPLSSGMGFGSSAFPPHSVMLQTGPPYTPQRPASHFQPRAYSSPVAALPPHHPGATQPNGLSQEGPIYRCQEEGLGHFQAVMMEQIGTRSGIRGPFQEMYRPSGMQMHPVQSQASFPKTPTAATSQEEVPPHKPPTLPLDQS

[18] = Toxicity in NOD SCID mouse xenografted with human 22Rv1 cells assessed as mortality at 40 mg/kg, ip administered once daily for 21 days; format: organism-based, CWR22R; conditions: in vivo, 504 h, time 21 day
CWR22R [19] = assay: Inhibition of colony formation in human 22Rv1 cells at 1 to 4 uM incubated for 14 days by crystal violet staining based assay; format: functional, cell-based; conditions: dose 1-4 µM, time 14.0 day
LNCaP [20] = assay: Suppression of c-Myc protein expression in human LNCaP cells at 5 uM incubated for 48 hrs by Western blot analysis; format: functional, cell-based
[21] = molecular target: T3, Bromodomain-containing protein 9 (Homo sapiens) (UniProt Q9H8M2); conditions: dose 200.0 µM, time 30.0 min
T3 sequence (whole entry): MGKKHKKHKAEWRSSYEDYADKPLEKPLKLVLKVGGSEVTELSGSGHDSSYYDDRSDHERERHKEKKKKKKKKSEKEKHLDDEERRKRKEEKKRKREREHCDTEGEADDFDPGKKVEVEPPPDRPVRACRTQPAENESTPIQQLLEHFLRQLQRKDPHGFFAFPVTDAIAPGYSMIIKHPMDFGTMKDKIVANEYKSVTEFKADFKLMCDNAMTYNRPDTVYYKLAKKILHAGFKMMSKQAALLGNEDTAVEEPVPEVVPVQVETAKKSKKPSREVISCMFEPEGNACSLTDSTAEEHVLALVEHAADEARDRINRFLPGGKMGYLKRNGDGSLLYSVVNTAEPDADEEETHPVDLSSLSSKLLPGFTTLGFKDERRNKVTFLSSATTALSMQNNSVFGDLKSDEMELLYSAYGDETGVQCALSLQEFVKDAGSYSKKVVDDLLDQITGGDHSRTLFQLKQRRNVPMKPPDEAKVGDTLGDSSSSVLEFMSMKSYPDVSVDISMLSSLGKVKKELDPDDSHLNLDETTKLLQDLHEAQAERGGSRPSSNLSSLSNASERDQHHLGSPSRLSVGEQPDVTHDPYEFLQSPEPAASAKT

[22] = Hepatic clearance in rat liver microsomes at 1 uM incubated for 45 mins in presence of NADPH by LC-MS/MS analysis; format: ADME, Microsome
[23] = molecular target: Bromodomain-containing protein 4 (Homo sapiens, UniProt O60885); conditions: dose 200.0 µM, time 30.0 min
[24] = molecular target: T2, Bromodomain-containing protein 3; conditions: dose 200.0 µM, time 30.0 min; remark: listed apart in the source
[25] = molecular target: T1, Bromodomain testis-specific protein; conditions: dose 200.0 µM, time 30.0 min; remark: listed apart in the source
[26] = Cmax in Sprague-Dawley rat at 5 mg/kg, iv administered as single dose measured up to 24 hrs; format: ADME, organism-based; parameters: time < 24 hrs, dose 5 mg/kg, route iv; conditions: in vivo
CREB-binding protein = CREB-binding protein (Homo sapiens, UniProt Q92793); conditions: dose 200.0 µM, time 30.0 min
[27] = Half life in Sprague-Dawley rat at 25 mg/kg, po measured up to 24 hrs; format: ADME, organism-based; conditions: in vivo

COc1ccn2c(C(C)=O)cc(C(=O)Nc3cc(C(C)O)cc(-c4cnn(C5CC5)c4)c3F)c2c1 (stereo not drawn)
Activity (LNCaP [1]): Active | CLint scaled at 1 µM [2]: 16.5 mL/min/kg | Activity (LNCaP C4-2B [3]): Active | recovery at 2 h, 10 µM [4]: 41.2% | IC50 (CWR22R [5]): 2040 nM | ΔTm [6]: 0 °C | ΔTm [7]: -3.3 °C | IC50 (LNCaP C4-2B [8]): 6.43 µM | Activity [9]: Non-Toxic | ΔTm [10]: -0.8 °C | inhibition in vivo at 40 mg/kg (CWR22R [11]): 88% | half-life [12]: 36.6 min | bioavailability [13]: 25.9% | ΔTm [14]: -2.5 °C | remaining at 0.75 h, 1 µM [15]: 23.1% | half-life at 1 µM [16]: 45.9 min | ΔTm [17]: 0 °C | Activity [18]: Non-Toxic | inhibition (CWR22R [19]): Active | Activity (LNCaP [20]): Active | ΔTm [21]: 5 °C | CLhep predicted at 1 µM [22]: 27.3 mL/min/kg | ΔTm [23]: -0.5 °C | ΔTm [24]: -1.3 °C | ΔTm [25]: -3 °C | Cmax [26]: 8110 ng/mL | ΔTm (CREB-binding protein): 11.5 °C | half-life [27]: 99.6 min
